We go through 25 compounds from US8785445B2 (Array BioPharma Inc., priority 2008, dated 2014).

For the first assay, the target named is T1, human DP2 (Homo sapiens, UniProt Q9Y5Y4).
T1 construct: expressed in transfected cells; membranes prepared
T1 sequence (Q9Y5Y4 1-395): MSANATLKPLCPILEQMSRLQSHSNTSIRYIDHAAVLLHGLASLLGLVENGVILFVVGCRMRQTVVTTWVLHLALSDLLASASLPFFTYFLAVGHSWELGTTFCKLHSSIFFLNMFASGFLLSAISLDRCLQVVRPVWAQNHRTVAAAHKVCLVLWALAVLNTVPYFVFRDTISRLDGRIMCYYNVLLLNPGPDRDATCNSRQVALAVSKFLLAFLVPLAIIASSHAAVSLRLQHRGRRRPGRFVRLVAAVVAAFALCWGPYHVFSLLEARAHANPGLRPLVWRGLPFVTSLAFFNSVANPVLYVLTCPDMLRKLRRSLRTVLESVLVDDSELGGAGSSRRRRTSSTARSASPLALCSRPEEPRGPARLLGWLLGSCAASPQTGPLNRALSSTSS
Nature of the assay: DP-2 binding inhibition assay (3H-PGD2, membranes of DP2-expressing K562 cells). The conditions noted are these: 0.1% BSA, read-out: EC50 (nM) 0.1% BSA. How it is done: The coding sequence of human DP2 was introduced into the human Leukemic cell line K562 by electroporation and stable clones expressing DP2 were obtained by limiting dilution followed by cell surface staining with a rat monoclonal antibody specific for human DP2. Membranes were prepared from one of these DP2 expressing clones and used to determine the ability of the compounds of the present invention to inhibit binding of prostaglandin D2 (PGD2) to its receptor DP2 in the presence of one or more of the following serum protein concentrations, 0.1% BSA, 1% HSA or 4% HSA, by the following procedure. […] After incubation for 60 minutes at room temperature, the assay was transferred to a filtration plate (#MAFB; Millipore Corporation, Bedford, Mass.), and washed three times with binding buffer. Radioactivity was measured by a scintillation counter (TopCount; PerkinElmer Life Sciences, Boston, Mass.). Nonspecific binding was determined by incubations in the presence of 1 μM unlabeled PGD2 or 5 μM of a known DP2 antagonist. IC50 values for inhibition of binding were determined for each compound tested from the inflexion point of a standard 4-parameter logistical curve fitted to the values obtained.
Turning to `N#Cc1cc2c(cc1Oc1ccc(C(=O)Nc3nc4ccccc4s3)cc1)OCCC2C(=O)O` (centres unmarked) [Example 194, 7-(4-(benzo[d]thiazol-2-ylcarbamoyl)phenoxy)-6-cyanochroman-4-carboxylic acid], the EC50 was 10.7 nM.

The same assay, now with this note: 1% HSA, read-out: EC50 (nM) 1% HSA.
For `N#Cc1cc2c(cc1Oc1ccc(C(=O)Nc3nc4ccccc4s3)cc1)OCCC2C(=O)O` (centres unmarked) [Example 194, 7-(4-(benzo[d]thiazol-2-ylcarbamoyl)phenoxy)-6-cyanochroman-4-carboxylic acid], the concentration for a half-maximal effect (EC50) was found to be 1240 nM.

Still in this assay, the particulars now being: 4% HSA, read-out: EC50 (nM) 4% HSA.
For `O=C(Nc1cc(C(F)(F)F)ccn1)c1ccc(Oc2cc3c(cc2Cl)C(C(=O)O)CCO3)cc1` (centres unmarked) [Example 31, 6-Chloro-7-(4-(4-(trifluoromethyl)pyridin-2-ylcarbamoyl)phenoxy)chroman-4-carboxylic acid], the EC50 came out at 1730 nM.

As to `CN(C)c1nc(C(F)(F)F)ccc1CCNC(=O)c1ccc(Oc2cc3c(cc2Cl)C(C(=O)O)CCO3)cc1` (centres unmarked) [Example 139, Sodium 6-chloro-7-(4-(2-(2-(dimethylamino)-6-(trifluoromethyl)pyridin-3-yl)ethylcarbamoyl)phenoxy)chroman-4-carboxylate], the EC50 worked out at 40 nM. For `O=C(Nc1cccc(-c2ccc(Cl)c(C(F)(F)F)c2)n1)c1ccc(Oc2cc3c(cc2Cl)C(C(=O)O)CCO3)cc1` (centres unmarked) [Example 53, 6-Chloro-7-(4-(6-(4-chloro-3-(trifluoromethyl)phenyl)pyridin-2-ylcarbamoyl)phenoxy)chroman-4-carboxylic acid], the EC50 came out at 40.9 nM.

Consider `Cc1cc2ccccc2nc1NC(=O)c1ccc(Oc2cc3c(cc2Cl)C(C(=O)O)CCO3)cc1` (centres unmarked) [Example 26, 6-Chloro-7-(4-(3-methylquinolin-2-ylcarbamoyl)phenoxy)chroman-4-carboxylic acid], for which the EC50 stood at 1910 nM. Still for that read-out and setting: as for `O=C(NCCc1cccnc1-c1ccccc1Cl)c1ccc(Oc2cc3c(cc2Cl)C(C(=O)O)CCO3)cc1` (centres unmarked) [Example 224, 6-chloro-7-(4-(2-(2-(2-chlorophenyl)pyridin-3-yl)ethylcarbamoyl)phenoxy) chroman-4-carboxylic acid], the figure is 998 nM. Still for that read-out and setting: as for `O=C(Nc1cccc(-c2ccc(Cl)cc2Cl)n1)c1ccc(Oc2cc3c(cc2Cl)C(C(=O)O)CCO3)cc1` (centres unmarked) [Example 103, Sodium 6-chloro-7-(4-(6-(2,4-dichlorophenyl)pyridin-2-ylcarbamoyl)phenoxy)chroman-4-carboxylate], the figure is 57.1 nM; as for `O=C(NCCc1cccc(-c2ccccc2Cl)n1)c1ccc(Oc2cc3c(cc2Cl)C(C(=O)O)CCO3)cc1` (centres unmarked) [Example 221, 6-chloro-7-(4-(2-(6-(2-chlorophenyl)pyridin-2-yl)ethylcarbamoyl)phenoxy) chroman-4-carboxylic acid], 962 nM. On to `O=C(Nc1cccc(C2CC2)n1)c1ccc(Oc2cc3c(cc2Cl)C(C(=O)O)CCO3)cc1` (centres unmarked) [Example 111, 6-Chloro-7-(4-(6-cyclopropylpyridin-2-ylcarbamoyl)phenoxy)chroman-4-carboxylic acid], for which the concentration giving a half-maximal response (EC50) came out at 1460 nM. The same measure, in the same setting: under `N#Cc1cc2c(cc1Oc1ccc(C(=O)Nc3cccc(-c4cccc(Cl)c4)n3)cc1)OCCC2C(=O)O` (centres unmarked) [Example 50, 7-(4-(6-(3-Chlorophenyl)pyridin-2-ylcarbamoyl)phenoxy)-6-cyanochroman-4-carboxylic acid] stands 135 nM. Same read-out and setting: under `O=C(Nc1cccc(-c2ccc(F)cc2F)n1)c1ccc(Oc2cc3c(cc2Cl)C(C(=O)O)CCO3)cc1` (centres unmarked) [Example 82, 6-Chloro-7-(4-(6-(2,4-difluorophenyl)pyridin-2-ylcarbamoyl)phenoxy)chroman-4-carboxylic acid] stands 120 nM.

For `CC(C)c1csc(NC(=O)c2ccc(Oc3cc4c(cc3Cl)C(C(=O)O)CCO4)cc2)n1` (centres unmarked) [Example 156, 6-chloro-7-(4-(4-isopropylthiazol-2-ylcarbamoyl)phenoxy)chroman-4-carboxylic acid], the concentration giving a half-maximal response (EC50) is 157 nM.

As to `O=C(Nc1ccn(-c2ccc(F)cc2F)n1)c1ccc(Oc2cc3c(cc2Cl)C(C(=O)O)CCO3)cc1` (centres unmarked) [Example 168, 6-chloro-7-(4-(1-(2,4-difluorophenyl)-1H-pyrazol-3-ylcarbamoyl)phenoxy)chroman-4-carboxylic acid], the 50% effective concentration (EC50) amounted to 112 nM. Same read-out and setting: as for `O=C(Nc1cc(-c2ccc(Cl)cc2)no1)c1ccc(Oc2cc3c(cc2Cl)C(C(=O)O)CCO3)cc1` (centres unmarked) [Example 161, 6-chloro-7-(4-(3-(4-chlorophenyl)isoxazol-5-ylcarbamoyl)phenoxy)chroman-4-carboxylic acid], the figure is 74.6 nM. With `CC(C)(C)Sc1cccc(NC(=O)c2ccc(Oc3cc4c(cc3Cl)C(C(=O)O)CCO4)cc2)n1` (centres unmarked) [Example 91, 7-(4-(6-(tert-Butylthio)pyridin-2-ylcarbamoyl)phenoxy)-6-chlorochroman-4-carboxylic acid], the concentration for a half-maximal effect (EC50) is 897 nM. For the compound `O=C(Nc1cnc2ccc(Cl)cc2n1)c1ccc(Oc2cc3c(cc2Cl)C(C(=O)O)CCO3)cc1` (centres unmarked) [Example 20, 6-Chloro-7-(4-(7-chloroquinoxalin-2-ylcarbamoyl)phenoxy)chroman-4-carboxylic acid], the EC50 stood at 255 nM. Still for that read-out and setting: as for `O=C(Nc1ccc(-c2ccccc2Cl)nc1)c1ccc(Oc2cc3c(cc2Cl)C(C(=O)O)CCO3)cc1` (centres unmarked) [Example 125, 6-Chloro-7-(4-(6-(2-chlorophenyl)pyridin-3-ylcarbamoyl)phenoxy)chroman-4-carboxylic acid], the figure is 627 nM; as for `Cc1cc(-c2cccc(NC(=O)c3ccc(Oc4cc5c(cc4Cl)C(C(=O)O)CCO5)cc3)n2)ccc1F` (centres unmarked) [Example 84, 6-Chloro-7-(4-(6-(4-fluoro-3-methylphenyl)pyridin-2-ylcarbamoyl)phenoxy)chroman-4-carboxylic acid], 144 nM. On the same count and under the same terms, as for `N#Cc1cc2c(cc1Oc1ccc(C(=O)Nc3cccc(-c4ccc(Cl)cc4)n3)cc1)OCCC2C(=O)O` (centres unmarked) [Example 51, 7-(4-(6-(4-Chlorophenyl)pyridin-2-ylcarbamoyl)phenoxy)-6-cyanochroman-4-carboxylic acid], the figure is 51.3 nM. The same measure, in the same setting: under `N#Cc1cc2c(cc1Oc1ccc(C(=O)Nc3nnc(-c4ccc(Cl)cc4)s3)cc1)OCCC2C(=O)O` (centres unmarked) [Example 147, 7-(4-(5-(4-chlorophenyl)-1,3,4-thiadiazol-2-ylcarbamoyl)phenoxy)-6-cyanochroman-4-carboxylic acid] stands 3440 nM; under `O=C(Nc1ccn(-c2ccccc2)n1)c1ccc(Oc2cc3c(cc2Cl)C(C(=O)O)CCO3)cc1` (centres unmarked) [Example 171], 97.5 nM. As to `O=C(Nc1cccc(-c2ccc(F)cc2)n1)c1ccc(Oc2cc3c(cc2Cl)C(C(=O)O)CCO3)cc1` (centres unmarked) [Example 109, 6-Chloro-7-(4-(6-(4-fluorophenyl)pyridin-2-ylcarbamoyl)phenoxy)chroman-4-carboxylic acid], the half-maximal effective concentration (EC50) was found to be 129 nM. Still for that read-out and setting: as for `O=C(Nc1ccc2cc(C(F)(F)F)ccc2n1)c1ccc(Oc2cc3c(cc2Cl)C(C(=O)O)CCO3)cc1` (centres unmarked) [Example 16, 6-Chloro-7-(4-(6-(trifluoromethyl)quinolin-2-ylcarbamoyl)phenoxy)chroman-4-carboxylic acid], the figure is 142 nM; as for `O=C(NCCc1cccn1-c1ccc(C(F)(F)F)cc1)c1ccc(Oc2cc3c(cc2Cl)C(C(=O)O)CCO3)cc1` (centres unmarked) [Example 212, 6-chloro-7-(4-(2-(1-(4-(trifluoromethyl)phenyl)-1H-pyrrol-2-yl)ethylcarbamoyl)phenoxy) chroman-4-carboxylic acid], 3010 nM. Still for that read-out and setting: as for `CCOc1ncccc1CCNC(=O)c1ccc(Oc2cc3c(cc2Cl)C(C(=O)O)CCO3)cc1` (centres unmarked) [Example 213, 6-chloro-7-(4-(2-(2-ethoxypyridin-3-yl)ethylcarbamoyl)phenoxy) chroman-4-carboxylic acid], the figure is 188 nM.

Broadly, the EC50 is the concentration giving half of the maximal effect.
